The first test deals with Polθ protein (amino acids 2-2590) (Homo sapiens, UniProt O75417). Briefly: Polθ full length enzyme potency assay (PicoGreen). The settings on record: Polθ IC50 (nM), full length N-His, C-term FLAG tagged Polθ, PicoGreen fluorescence, 12 point concentration response.
Chain of Polθ protein (amino acids 2-2590) (O75417 2-2590): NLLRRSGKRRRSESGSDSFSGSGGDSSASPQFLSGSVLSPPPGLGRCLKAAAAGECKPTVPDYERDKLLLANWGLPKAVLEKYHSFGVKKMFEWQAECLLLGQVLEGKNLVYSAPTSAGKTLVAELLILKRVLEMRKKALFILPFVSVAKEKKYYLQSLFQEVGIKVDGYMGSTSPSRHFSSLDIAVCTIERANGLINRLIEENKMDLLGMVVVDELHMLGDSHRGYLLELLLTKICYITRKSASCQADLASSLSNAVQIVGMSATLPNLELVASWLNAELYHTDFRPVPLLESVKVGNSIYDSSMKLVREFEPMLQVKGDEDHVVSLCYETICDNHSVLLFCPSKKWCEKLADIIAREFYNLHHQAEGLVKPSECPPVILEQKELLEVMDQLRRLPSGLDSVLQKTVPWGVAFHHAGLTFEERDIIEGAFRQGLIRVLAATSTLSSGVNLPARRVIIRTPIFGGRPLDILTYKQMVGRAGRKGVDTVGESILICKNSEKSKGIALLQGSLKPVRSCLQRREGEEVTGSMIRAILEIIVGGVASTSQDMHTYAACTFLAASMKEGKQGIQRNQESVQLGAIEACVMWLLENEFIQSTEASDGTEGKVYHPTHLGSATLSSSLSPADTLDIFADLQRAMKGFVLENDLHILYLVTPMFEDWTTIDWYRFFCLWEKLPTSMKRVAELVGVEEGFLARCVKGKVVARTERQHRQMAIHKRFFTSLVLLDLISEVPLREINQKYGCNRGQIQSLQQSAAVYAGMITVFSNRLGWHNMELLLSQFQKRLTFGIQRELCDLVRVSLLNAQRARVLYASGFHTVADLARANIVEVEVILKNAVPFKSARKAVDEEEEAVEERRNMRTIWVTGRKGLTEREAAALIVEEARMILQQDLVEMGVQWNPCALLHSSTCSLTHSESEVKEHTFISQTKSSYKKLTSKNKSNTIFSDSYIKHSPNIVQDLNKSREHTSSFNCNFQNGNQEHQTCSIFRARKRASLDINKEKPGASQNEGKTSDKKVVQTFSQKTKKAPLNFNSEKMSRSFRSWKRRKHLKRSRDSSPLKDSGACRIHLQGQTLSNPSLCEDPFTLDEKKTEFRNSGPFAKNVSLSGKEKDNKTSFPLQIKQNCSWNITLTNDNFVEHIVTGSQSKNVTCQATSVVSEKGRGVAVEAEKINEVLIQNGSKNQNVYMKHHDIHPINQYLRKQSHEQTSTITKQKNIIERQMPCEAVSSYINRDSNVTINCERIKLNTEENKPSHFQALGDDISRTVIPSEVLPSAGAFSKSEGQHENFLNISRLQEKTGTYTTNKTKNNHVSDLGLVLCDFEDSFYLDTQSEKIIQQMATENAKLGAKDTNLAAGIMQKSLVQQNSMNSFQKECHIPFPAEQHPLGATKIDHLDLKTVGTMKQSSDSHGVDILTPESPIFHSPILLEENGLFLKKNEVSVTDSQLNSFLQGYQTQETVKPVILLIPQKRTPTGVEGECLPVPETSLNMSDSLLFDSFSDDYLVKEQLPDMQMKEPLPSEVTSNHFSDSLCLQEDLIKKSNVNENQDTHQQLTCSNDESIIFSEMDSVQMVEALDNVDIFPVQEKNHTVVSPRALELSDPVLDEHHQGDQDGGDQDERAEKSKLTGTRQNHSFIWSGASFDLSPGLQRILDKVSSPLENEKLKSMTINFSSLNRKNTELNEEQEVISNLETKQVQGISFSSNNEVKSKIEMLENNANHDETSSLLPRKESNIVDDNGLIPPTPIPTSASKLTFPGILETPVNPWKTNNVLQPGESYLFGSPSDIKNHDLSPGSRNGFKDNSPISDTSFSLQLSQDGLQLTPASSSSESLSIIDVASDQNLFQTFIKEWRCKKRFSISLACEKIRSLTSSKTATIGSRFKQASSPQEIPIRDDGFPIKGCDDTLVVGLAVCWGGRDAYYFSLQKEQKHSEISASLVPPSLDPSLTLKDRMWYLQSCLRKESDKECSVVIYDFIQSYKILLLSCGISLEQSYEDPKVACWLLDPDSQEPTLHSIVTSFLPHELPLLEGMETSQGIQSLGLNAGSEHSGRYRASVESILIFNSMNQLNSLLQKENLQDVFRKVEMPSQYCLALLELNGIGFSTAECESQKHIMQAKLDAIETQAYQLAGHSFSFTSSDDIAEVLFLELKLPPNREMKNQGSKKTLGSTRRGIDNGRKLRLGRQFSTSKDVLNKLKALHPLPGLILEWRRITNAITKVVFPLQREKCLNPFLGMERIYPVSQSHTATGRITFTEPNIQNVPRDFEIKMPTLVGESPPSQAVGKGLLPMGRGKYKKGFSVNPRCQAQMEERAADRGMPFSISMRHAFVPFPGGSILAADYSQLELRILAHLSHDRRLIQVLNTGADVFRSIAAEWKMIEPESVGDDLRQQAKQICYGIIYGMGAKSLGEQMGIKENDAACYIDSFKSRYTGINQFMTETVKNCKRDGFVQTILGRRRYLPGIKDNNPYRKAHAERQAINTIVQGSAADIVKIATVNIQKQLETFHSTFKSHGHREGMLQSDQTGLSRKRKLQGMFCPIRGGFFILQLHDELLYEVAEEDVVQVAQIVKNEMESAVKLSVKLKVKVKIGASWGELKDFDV
Protocol: Polθ Full Length Enzyme Potency Assay
PicoGreen assay was used to measure the ability of compounds to inhibit the activity of Polθ in vitro. […] DMSO concentration was maintained at 1% by back filling with DMSO solution. […] This was dispensed into each well of the compound plate using a VIAFLO 16 channel manual pipette (Integra) and pre-incubated at rt for 30 min. 3 μL of 2× working solution of dNTPs (40 μM) (dATP, dCTP, dGTP, dTTP; Sigma D6500, D4635, D4010, T0251) diluted in assay buffer was then added and the reaction incubated for 60 min at rt. The reaction was stopped by addition of 10 mM EDTA, 25 mM Tris pH 7.5 and 1:200 dilution of PicoGreen dye (Invitrogen P7581).
As usually defined, the IC50 is the concentration that inhibits the measured activity by half. Regarding `CCN(C(=O)[C@@H]1C[C@H](N)CN1c1nc(C)cc(C)c1C#N)c1cccc(C)c1` [Example 38, (2S,4S)-4-Amino-1-(3-cyano-4,6-dimethylpyridin-2-yl)-N-ethyl-N-(m-tolyl)pyrrolidine-2-carboxamide], half-maximal inhibition (IC50) required 273 nM. Same read-out and setting: the figure for `CCN(C(=O)[C@@H]1[C@H](O)CCN1c1nc(C)cc(C(F)(F)F)c1C#N)c1ccc(F)c(Cl)c1` [Example 82, (2S,3R)—N-(3-Chloro-4-fluorophenyl)-1-(3-cyano-6-methyl-4-(trifluoromethyl)pyridin-2-yl)-N-ethyl-3-hydroxypyrrolidine-2-carboxamide] is 8 nM; for `Cc1cc(C(F)(F)F)cc(N2C(=O)[C@@H](O)[C@@H](O)[C@H]2C(=O)N(C)c2ccc(F)c(C)n2)n1` [Example 170, (2S,3S,4S)—N-(5-Fluoro-6-methylpyridin-2-yl)-3,4-dihydroxy-N-methyl-1-(6-methyl-4-(trifluoromethyl)pyridin-2-yl)-5-oxopyrrolidine-2-carboxamide] it is 193 nM; for `Cc1cc(OC(F)F)cc(N2C(=O)OC[C@H]2C(=O)N(C)c2ccc(F)c(Cl)c2)n1` [Example 121, (S)—N-(3-Chloro-4-fluorophenyl)-3-(4-(difluoromethoxy)-6-methylpyridin-2-yl)-N-methyl-2-oxooxazolidine-4-carboxamide] it is 167 nM. On the same count and under the same terms, then `CCN(C(=O)[C@@H]1C[C@H](NC2CNC2)CN1c1nc(C)cc(C)c1C#N)c1cccc(C)c1` [Example 51, (2S,4S)-4-(Azetidin-3-ylamino)-1-(3-cyano-4,6-dimethylpyridin-2-yl)-N-ethyl-N-(m-tolyl)pyrrolidine-2-carboxamide], with 1560 nM; and `CCN(C(=O)[C@@H]1C[C@H](N2CCOCC2)CN1c1nc(C)cc(C)c1C#N)c1cccc(C)c1` [Example 42, (2S,4S)-1-(3-Cyano-4,6-dimethylpyridin-2-yl)-N-ethyl-4-morpholino-N-(m-tolyl)pyrrolidine-2-carboxamide], with 25 nM; and `Cc1cc(C(F)(F)F)cc(N2C(=O)N(CC3CNC3)C[C@H]2C(=O)N(C)c2ccc(F)c(Cl)c2F)n1` [Example 188, (S)-1-(Azetidin-3-ylmethyl)-N-(3-chloro-2,4-difluorophenyl)-N-methyl-3-(6-methyl-4-(trifluoromethyl)pyridin-2-yl)-2-oxoimidazolidine-4-carboxamide], with 18 nM. Same read-out and setting: the figure for `Cc1cc(C(F)(F)F)cc(N2C(=O)OC[C@H]2C(=O)N(C)c2ccc(C3CC3)c(Cl)c2)n1` [Example 173, (S)—N-(3-Chloro-4-cyclopropylphenyl)-N-methyl-3-(6-methyl-4-(trifluoromethyl)pyridin-2-yl)-2-oxooxazolidine-4-carboxamide] is 13 nM; for `CCN(C(=O)[C@@H]1[C@H](O)[C@H](O)CN1c1nc(C)cc(C(F)(F)F)c1C#N)c1ccc(F)c(Cl)c1` [Example 57, (2S,3S,4R)-N-(3-Chloro-4-fluoro-phenyl)-1-(3-cyano-6-methyl-4-(trifluoromethyl)pyridin-2-yl)-N-ethyl-3,4-dihydroxypyrrolidine-2-carboxamide] it is 10 nM.

With `Cc1cc(C(F)(F)F)cc(N2C(=O)OC[C@H]2C(=O)N(C)c2ccc(Br)c(Cl)c2)n1` [Example 172, (S)-N-(4-Bromo-3-chlorophenyl)-N-methyl-3-(6-methyl-4-(trifluoromethyl)pyridin-2-yl)-2-oxooxazolidine-4-carboxamide], inhibition was half-maximal at 20 nM (IC50). Still for that read-out and setting: the figure for `CCN(C(=O)[C@@H]1C[C@H](O)CN1c1nc(C)cc(C(F)(F)F)n1)c1ccc(F)c(Cl)c1` [Example 64, (2S,4S)—N-(3-Chloro-4-fluorophenyl)-N-ethyl-4-hydroxy-1-(4-methyl-6-(trifluoromethyl)-pyrimidin-2-yl)pyrrolidine-2-carboxamide] is 166 nM; for `Cc1cc(C(F)(F)F)cc(N2C(=O)N(CCN3CCC3)C[C@H]2C(=O)N(C)c2ccc(F)c(Cl)c2F)n1` [Example 201, (S)-1-(2-(Azetidin-1-yl)ethyl)-N-(3-chloro-2,4-difluorophenyl)-N-methyl-3-(6-methyl-4-(trifluoromethyl)-pyridin-2-yl)-2-oxoimidazolidine-4-carboxamide] it is 26 nM; for `Cc1cc(C(F)(F)F)cc(N2C(=O)N(CCS(C)(=O)=O)C[C@H]2C(=O)N(C)c2ccc(F)c(Cl)c2)n1` [Example 180, (S)—N-(3-Chloro-4-fluorophenyl)-N-methyl-3-(6-methyl-4-(trifluoromethyl)pyridin-2-yl)-1-(2-(methylsulfonyl)ethyl)-2-oxoimidazolidine-4-carboxamide] it is 9 nM.

The molecule `Cc1cccc(N(C)C(=O)[C@@H]2C[C@H](O)CN2c2cc(C(F)(F)F)cc(C)n2)c1` [Example 27, (2S,4S)-4-Hydroxy-N-methyl-1-(6-methyl-4-(trifluoromethyl)pyridin-2-yl)-N-(m-tolyl)pyrrolidine-2-carboxamide] displayed an IC50 of 12 nM. The same measure, in the same setting: the figure for `C=Cc1ccc(N(C)C(=O)[C@@H]2COC(=O)N2c2cc(C(F)(F)F)cc(C)n2)c(F)c1` [Example 111, (S)—N-(2-Fluoro-4-vinylphenyl)-N-methyl-3-(6-methyl-4-(trifluoromethyl)pyridin-2-yl)-2-oxooxazolidine-4-carboxamide] is 18 nM; for `Cc1cc(C(F)(F)F)cc(N2C(=O)N(CC3(O)CNC3)C[C@H]2C(=O)N(C)c2ccc(F)c(Cl)c2F)n1` [Example 224, (S)—N-(3-Chloro-2,4-difluorophenyl)-1-((3-hydroxyazetidin-3-yl)methyl)-N-methyl-3-(6-methyl-4-(trifluoromethyl)pyridin-2-yl)-2-oxoimidazolidine-4-carboxamide] it is 6 nM.

With `Cc1cc(C(F)(F)F)cc(N2C(=O)N(CCN3CC[C@H](F)C3)C[C@H]2C(=O)N(C)c2ccc(F)c(Cl)c2F)n1` [Example 205, (S)-N-(3-Chloro-2,4-difluorophenyl)-1-(2-((S)-3-fluoropyrrolidin-1-yl)ethyl)-N-methyl-3-(6-methyl-4-(trifluoromethyl)pyridin-2-yl)-2-oxoimidazolidine-4-carboxamide], the IC50 amounted to 6 nM.

Take `Cc1cc(C(C)C(F)(F)F)cc(N2C(=O)OC[C@H]2C(=O)N(C)c2ccc(F)c(Cl)c2)n1` (stereo partly drawn) [Example 124, (4S)—N-(3-Chloro-4-fluorophenyl)-N-methyl-3-(6-methyl-4-(1,1,1-trifiuoropropan-2-yl)pyridin-2-yl)-2-oxooxazolidine-4-carboxamide]: half-maximal inhibition (IC50) was put at 304 nM. The same measure, in the same setting: the figure for `Cc1cc(C(F)(F)F)cc(N2C(=O)NC[C@H]2C(=O)N(C)c2ccc3cc[nH]c3n2)n1` [Example 233, (S)—N-Methyl-3-(6-methyl-4-(trifluoromethyl)pyridin-2-yl)-2-oxo-N-(1H-pyrrolo[2,3-b]pyridin-6-yl)imidazolidine-4-carboxamide] is 3 nM; for `Cc1cc(C(F)(F)F)c(C#N)c(N2CC[C@@H](O)[C@H]2C(=O)N(C)c2ccc(F)c(Cl)c2)n1` [Example 81, (2S,3R)—N-(3-Chloro-4-fluorophenyl)-1-(3-cyano-6-methyl-4-(trifluoromethyl)pyridin-2-yl)-3-hydroxy-N-methylpyrrolidine-2-carboxamide] it is 8 nM. The molecule `Cc1cc(C(F)(F)F)cc(N2C(=O)[C@H]3OC(C)(C)O[C@H]3[C@H]2C(=O)N(C)c2ccc(F)c(Cl)c2F)n1` [Example 69, (3aS,4S,6aS)—N-(3-Chloro-2,4-difluorophenyl)-N,2,2-trimethyl-5-(6-methyl-4-(trifluoromethyl)-pyridin-2-yl)-6-oxotetrahydro-4H-[1,3]dioxolo[4,5-c]pyrrole-4-carboxamide] displayed a half-inhibitory concentration (IC50) of 69 nM.

Turning to `Cc1cc(C(F)(F)F)c(C#N)c(N2[C@H](C)CC[C@H]2C(=O)N(C)c2ccc(F)c(Cl)c2)n1` [Example 241, (2S,5R)—N-(3-Chloro-4-fluorophenyl)-1-(3-cyano-6-methyl-4-(trifluoromethyl)pyridin-2-yl)-N,5-dimethylpyrrolidine-2-carboxamide], inhibition was half-maximal at 240 nM (IC50). Regarding `CCN(C(=O)[C@@H]1C[C@H](N2CCOC(CO)C2)CN1c1cc(C(F)(F)F)cc(C)n1)c1ccc(F)c(F)c1` (stereo partly drawn) [Example 128, (2S,4S)-N-(3,4-Difluorophenyl)-N-ethyl-4-(2-(hydroxymethyl)morpholino)-1-(6-methyl-4-(trifluoromethyl)pyridin-2-yl)pyrrolidine-2-carboxamide], the half-maximal inhibitory concentration (IC50) worked out at 42 nM.

The test is the same for the next values; noted with them: read-out: Polθ IC50; full length N-His, C-term FLAG tagged Polθ, PicoGreen fluorescence, 12 point concentration response.
As to `CCN(C(=O)[C@@H]1[C@H](O)[C@H](O)C(=O)N1c1cc(C(F)(F)F)cc(C)n1)c1ccc(F)c(Cl)c1` [Example 66, (2S,3S,4S)-N-(3-Chloro-4-fluoro-phenyl)-N-ethyl-3,4-dihydroxy-1-(6-methyl-4-(trifluoromethyl)pyridin-2-yl)-5-oxopyrrolidine-2-carboxamide], the IC50 worked out at 20 nM. The same measure, in the same setting: then `Cc1cc(C(F)(F)F)cc(N2C(=O)OC[C@H]2C(=O)N(C)c2cc(Cl)c(F)cc2F)n1` [Example 98, (S)-N-(5-Chloro-2,4-difluorophenyl)-N-methyl-3-(6-methyl-4-(trifluoromethyl)pyridin-2-yl)-2-oxooxazolidine-4-carboxamide], with 32 nM; and `Cc1cc(C(F)(F)F)c(C#N)c(N2C[C@@H](O)C[C@H]2C(=O)N(C)c2ccc(F)c(Cl)c2)n1` [Example 5, (2S,4S)—N-(3-Chloro-4-fluorophenyl)-1-(3-cyano-6-methyl-4-(trifluoro-methyl)pyridin-2-yl)-4-hydroxy-N-methylpyrrolidine-2-carboxamide], with 16 nM; and `CCN(C(=O)[C@@H]1COC(=O)N1c1cc(C(F)(F)F)cc(C)n1)c1ccc(F)c(Cl)c1` [Example 103, (S)-N-(3-Chloro-4-fluorophenyl)-N-ethyl-3-(6-methyl-4-(trifluoromethyl)-pyridin-2-yl)-2-oxooxazolidine-4-carboxamide], with 54 nM. Still for that read-out and setting: then `Cc1cc(C(F)(F)F)cc(N2C(=O)OC[C@H]2C(=O)N(C)c2cc(Cl)ccc2F)n1` [Example 96, (S)-N-(5-Chloro-2-fluorophenyl)-N-methyl-3-(6-methyl-4-(trifluoromethyl)pyridin-2-yl)-2-oxooxazolidine-4-carboxamide], with 24 nM.
